# Assay results taken from patent US8323919B2, “Assay methods for identifying glycogen synthase kinase 3 modulators” (PerkinElmer BioSignal, Inc., priority 2009, dated 2012).
# Biological target: T1, GSK3β (Homo sapiens, UniProt P49841)
# T1 construct: purchased Carna Biosciences
# Assay: LANCE Ultra TR-FRET kinase assay: phosphorylation of non-primed ULight-labeled 4E-BP1-derived peptide by GSK3β in the presence of inhibitor
# Type: biochemical
# Settings: GSK3β (Carna Biosciences) 2 nM, ATP 10 μM, ULight-4E-BP1 50 nM, 60 min, DMSO 1%, inhibitor at various concentrations
# Protocol: Anti-phosphorylated-4E-BP1 antibody (Thr37/46) labeled with a FRET donor is added and upon irradiation, the proximity of the FRET donor and FRET acceptor produce a signal, shown on the y-axis. The 4E-BP1-derived peptide substrate of SEQ ID No. 7 was used, modified by addition of three amino acids at both the N- and C-termini to facilitate solubilizing the peptide and labeling of the peptide with a FRET acceptor label; and
# Anti-phosphorylated-4E-BP1 antibody (Thr37/46) labeled with a FRET donor is added and upon irradiation, the proximity of the FRET donor and FRET acceptor produce a signal, shown on the y-axis The 4E-BP1-derived peptide substrate of SEQ ID No. 7 was used, modified by addition of three amino acids at both the N- and C-termini to facilitate solubilizing the peptide and labeling of the peptide with a FRET acceptor label.
# LANCE® Ultra assays are based on time-resolved fluorescence resonance energy transfer (TR-FRET). They use a proprietary europium chelate donor dye, W-1024 (Eu), with ULight®, a small molecular weight acceptor dye with a red fluorescent emission. In kinase assays, the binding of a Eu-labeled anti-phospho-substrate antibody to the phosphorylated ULight-labeled substrate brings donor and acceptor dye molecules into proximity. […]
# T1 sequence (P49841 whole entry): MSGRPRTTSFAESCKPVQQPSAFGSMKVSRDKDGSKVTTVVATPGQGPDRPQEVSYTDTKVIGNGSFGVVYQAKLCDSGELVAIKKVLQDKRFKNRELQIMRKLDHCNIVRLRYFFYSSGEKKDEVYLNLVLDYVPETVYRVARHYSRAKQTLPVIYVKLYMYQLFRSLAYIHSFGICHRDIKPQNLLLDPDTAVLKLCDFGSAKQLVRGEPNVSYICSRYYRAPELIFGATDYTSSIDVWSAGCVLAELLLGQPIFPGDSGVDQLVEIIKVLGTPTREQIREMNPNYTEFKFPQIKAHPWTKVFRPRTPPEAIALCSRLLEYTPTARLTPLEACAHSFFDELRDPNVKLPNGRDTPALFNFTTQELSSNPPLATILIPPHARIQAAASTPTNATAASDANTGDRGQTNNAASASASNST
row,GSK3β activity on a 4E-BP1 GSK3 substrate,SMILES
1,inhibited,O=C1Cc2c([nH]c3ccc(Br)cc23)-c2ccccc2N1 [kenpaullone]
2,inhibited,Cn1cc(C2=C(c3ccc(Cl)cc3Cl)C(=O)NC2=O)c2ccccc21 [SB216763]
